Read-outs that look alike come from different tables or passages of the source.
Experiments:
[1] = tested on: murine AML cells (MLL-AF9 clone A, MLL-AF9 clone B, HoxA9/Meis1 cells); assay: Viability of murine AML cells in 1:1 mixtures with normal leukocytes exposed to CBX for 16 hours; format: cell-based, mouse
Experimental: (§1) Cells were distinguished by Cd45.1/CD45.2 expression and cell viability was determined by % of 7AAD-negative cells, in FACS analysis. (*p<0.01).
Cells were distinguished by CD45.1/CD45.2 expression and cell viability was determined by % of 7AAD-negative cells, in FACS analysis (*p<0.01).
(§2) We then asked how blockage of gap junction intercellular communication affects AML cells, without additional treatment. […] In order to exclude the possibility of clone specific effects, we have repeated the experiments with a different MLL-AF9 clone, generated independently, and also included HoxA9/Meis1 AML cells that represent a different type of AML.

[2] = tested on: human APL cell line HL60; assay: HL60 viability (flow cytometry) and colony formation after CBX; format: cell-based; conditions: viability 16 hours, colony formation 7 days post exposure
[3] = tested on: MLL-AF9 cells; assay: MLL-AF9 viability under chemotherapy with or w/o MS-5 stromal layer, transwell inserts and CBX (7AAD FACS); format: cell-based, mouse
Excerpt: Viability was detected via GFP expression and 7AAD exclusion.
To test this hypothesis, we evaluated the response of MLL-AF9 leukemic cells to chemotherapy in vitro, with and without supporting bone marrow stromal cells using time-lapse video microscopy combined with flow cytometry. […] MS-5 are murine bone-marrow stromal cells that were previously shown to support hematopoietic stem and progenitor cells (Itoh, et al., Experimental Hematology 21, 145-153 (1989) and Schajnovitz, et al., Nature Immunology 12, 391-8 (2011)). […] In order to distinguish between Stromal-leukemic (heterotypic) interactions and leukemic-leukemic (homotypic) interactions, we separated the MLL-AF9 from the stroma by transwell inserts, to restrict heterotypic interactions while allowing homotypic interactions.
Since adhesion interactions of hematopoietic cells are commonly accompanied with intercellular communication, we then tested the potential role of gap junctions activity in drug resistance. Gap junction intercellular channels, which are homo- and hetero-hexamers of connexin proteins, facilitate intercellular communication between contacting cells via the passage of secondary messengers, such as calcium and cAMP^17.

[4] = tested on: human AML cell line HL60; assay: Neutrophil differentiation (CD66b+/CD14-) by FACS in HL60; format: cell-based; conditions: HL60, 16 hours
[5] = tested on: MLL-AF9 cells; assay: Viability of MLL-AF9 cells exposed to CBX for 16 hours (7AAD FACS); format: cell-based, mouse; design: MLL-AF9 cell death: dose or concentration left out as unconfirmed
Experimental: as §1, §2

[6] = tested on: Mac1 (CD11b, integrin αm) in MLL-AF9 cells; assay: Mac1 expression in CBX treated mice leukemic cells; format: cell-based, mouse; conditions: 7AAD-negative MLL-AF9 cells undergoing apoptosis
[7] = tested on: MLL-AF9 leukemic cells; assay: Apoptosis of MLL-AF9 leukemic cells (7AAD-negative, annexin-V positive); format: cell-based, mouse; design: apoptosis of leukemic cells, kinetics: dose or concentration left out as unconfirmed
Experimental: Rate of proliferation for cell populations used is as follows: MLL-AF9: 3 divisions/24 hours; myeloblasts: 3 divisions/24 hours, eLKS: 7 divisions/24 hours.
The informational material can include instructions to administer the gap junction blocker and/or agents described herein in a suitable manner, e.g., in a suitable dose, dosage form, or mode of administration. […] The informational material can include instructions for selecting a suitable subject, e.g., a human, e.g., a human suffering from relapsed or refractory acute myeloid leukemia. The informational material of the kits is not limited in its form. In many cases, the informational material, e.g., instructions, is provided in printed matter, e.g., a printed text, drawing, and/or photograph, e.g., a label or printed sheet. However, the informational material can also be provided in other formats, such as Braille, computer readable material, video recording, or audio recording. In another embodiment, the informational material of the kit is a link or contact information, e.g., a physical address, email address, hyperlink, website, or telephone number, where a user of the kit can obtain substantive information about the modulator and/or its use in the methods described herein. Of course, the informational material can also be provided in any combination of formats.

CC1(C)[C@@H](OC(=O)CCC(=O)O)CC[C@]2(C)[C@H]3C(=O)C=C4[C@@H]5C[C@@](C)(C(=O)O)CC[C@]5(C)CC[C@@]4(C)[C@]3(C)CC[C@@H]12 [CBX, Carbenoxolone]
eradication of different murine AML cells [1]: selectively eradicates
eradication of different murine AML cells ([1]; listed as Carbenoxolone): selective eradication
eradication of different murine AML cells ([1]; listed as carbenoxolone): selectively eradicates
sensitivity of HL60 [2]: sensitive
stroma-mediated drug resistance ([3]; 25 nM cytarabine and 10 nM doxorubicin as chemo, 16 hours): overcomes stroma-mediated drug resistance
eradication ([3]; co-cultures separated with transwell inserts, CBX + chemotherapy): more than 90%
MLL-AF9 cells eradicated ([3]; coculture with MS-5, 100 μM CBX 20 minutes before induction chemotherapy): ~90%
neutrophil differentiation (CD66b+/CD14−) [4]: induces rapid (within 16 hours) neutrophil differentiation
cells eradicated ([5]; 1001 μM CBX for 16 hours, CBX alone): ~20%
eradication of MLL-AF9 leukemia ([5]; CBX at greater than or equal to 100 μM, 16 hours): eradication of MLL-AF9 leukemia
MLL-AF9 cell death ([5]; CBX, 16 hours): ~70%
eradication of MLL-AF9 cells in 1:1 mixture with normal BM leukocytes ([5]; increasing CBX up to 400 μM, 16 hours): selectively eradicates
Mac1 (CD11b) expression [6]: downregulated
apoptosis of MLL-AF9 leukemic cells ([7]; 6, 12 and 20 hours): rapidly induces apoptosis
cell cycle dependence of CBX-induced leukemia apoptosis ([7]; 4 h, 1:1 mixture with highly proliferating normal myeloblasts or expanded LKS cells): not cell cycle dependent
apoptosis of leukemic cells in 1:1 mixture with BM-MNC ([7]; CBX vs PBS control, 4h): induces apoptosis of leukemic cells
apoptosis of leukemic cells, kinetics ([7]; exposure of about […] μM): selective apoptosis within hours

— US20160367578A1, “METHODS AND COMPOSITIONS FOR ERADICATING LEUKEMIC CELLS” (priority 2013, published 2016)
